Legend:
[1] = tested on: intracellular S. aureus strain UAMS-1 in murine calvaria; test: Ex vivo neonatal mouse calvaria intracellular eradication; format: cell-based
Experimental: Neonatal mouse whole calvaria were treated for 4 hours with chimeric peptidoglycan hydrolases or buffer alone, 24 hours post inoculation with GFP-expressing S. aureus. Calvaria were embedded in freeze media, sectioned, and subjected to fluorescence imaging. The image shown is a representative figure for triplicate sections of three separate calvaria. FIG. 8b depicts fluorescence intensity from these sections measured in ImageJ and defined as arbitrary fluorescence standardized to the untreated control. Error bars represent SEM of four replicate experiments. FIG. 8c depicts ex-vivo intracellular S. aureus eradication. Infected calvaria were homogenized and CFU were counted post treatment. Error bars represent SEM. FIG. 8d depicts a murine model of staphylococcal osteomyelitis. C57BL/6J mice were anesthetized and their femurs were surgically exposed. A trough was drilled through the bone cortex and the damaged bone sites were inoculated with 1×10^3 CFU S. aureus in agarose beads. After 24 hours, mice were treated (i.m. to site of infection) twice in a 24 h period with PBS or 5 mg/kg of triple fusion K-L or K-L-PTD1. The femurs were removed, homogenized, and plated to quantify the bacterial load. Bars indicate the average CFU recovered (N=6). […] Asterisks represent statistical significance as determined by one-way ANOVA followed by Tukey's posthoc test.
To examine the intracellular uptake and eradication in murine osteoblast-containing tissue samples, both ex vivo calvaria (skull cap), and in vivo femur injury models were tested. Calvaria were isolated from neonatal mice and infected with UAMS-1 strain of S. aureus (1×10^6 bacteria/calvaria) for 2 h at 37° C. in osteoblast growth medium in the absence of antibiotics. Following 3× washes with PBS, calvaria were exposed to 50 μg/ml of gentamicin for 15 min to kill extracellular bacteria and further cultured in gentamicin containing osteoblast growth media. After 24 h later, calvaria were treated with peptidoglycan hydrolases (5 μg/ml) or gentamicin only control for 2 h. Lysis buffer containing 0.05% trypsin and 0.25% Triton X-100 was used to homogenize the calvaria, the homogenates were quantitatively plated on LB agar plates, and the CFU were enumerated after 24 h. The data represents triplicate determinants of two separate experiments.
Calvaria were isolated, and infected as described above using GFP-tagged UAMS-1 strain of S. aureus. Two hours post-infection, calvaria were washed with PBS followed by a 15 minutes treatment with 50 μg/ml gentamicin to kill extracellular bacteria. 24 hours post-infection, calvaria were treated with 5 μg/ml peptidoglycan hydrolases or gentamicin only control for two hours and embedded in Tissue-Tek O.C.T compound (Sakura, Torrance, Calif.). […]

TNFα = test: Murine model of mastitis, TNFα response; format: in vivo, C57BL6/SJL mice; details: single 1.25 nmoles intramammary infusion, after challenge
Experimental: FIG. 6a depicts the specific activity of peptidoglycan hydrolase fusion constructs in vitro in a turbidity reduction assay with S. aureus Newbould 305 resuspended in lysis buffer to an OD600nm of 1.0 and treated with 1 μM final concentrations of each peptidoglycan hydrolase. The maximum specific activity for three experiments are represented as an average with SEM error bars. FIG. 6b depicts the bacterial burden in mice with mastitis treated with recombinant peptidoglycan hydrolases. Colony Forming Units (CFUs) from infected murine mammary glands following a single treatment with 50 μl of 25 μM peptidoglycan hydrolase (1.25 nmol). Each data point represents the average of duplicate bacterial platings. The horizontal bars represent the average CFU/mg for each group. FIG. 6c illustrates the TNFα response in mice with mastitis that were treated with peptidoglycan hydrolases. Data represents a minimum of 7 measurements in duplicate. Log TNFα was used for statistical analysis. Single asterisks indicate a significant difference from buffer control (p<0.05); double asterisks indicate a significant difference from the parental enzyme (p<0.05). […]
Statistical analysis: The variables were analyzed as two-factor mixed models with Treatment as the factor and Mouse as random Blocks. […]

Substance	live bacteria (CFU) recovered from calvaria ([1]; 5 μg/ml for 2 h, homogenized calvaria)	elimination of GFP-labeled intracellular S. aureus (fluorescence) ([1]; 5 μg/ml, 24 hours post-infection, sectioned calvaria)	reduction of TNFα concentration in the mammary tissue (TNFα) [fold]
K-L: both LysK lytic domains fused to the N-terminus of lysostaphin; SEQ ID NO:5, protein SEQ ID NO:6	able to reduce the number of live bacteria recovered from sectioned calvaria	able to eliminate GFP-labeled intracellular S. aureus strain UAMS-1 from murine calvaria	–
L: 247 amino acid mature (secreted) lysostaphin, staphylolytic bacteriocin, C-terminal His6 tag; SEQ ID NO:1 [reference compound]	–	–	> 6
